Target: T1, ryanodine receptor from Spodoptera frugiperda (sfRyR) (Spodoptera frugiperda, UniProt A0A4P8L6R5)
T1 construct: gene RyR
Experiment: time-lapse R-CEPIA1er [Ca2+]ER measurement in HEK cells stably expressing sfRyR (positive control)
Assay type: cell-based

T1 sequence (A0A4P8L6R5 entry or part of it): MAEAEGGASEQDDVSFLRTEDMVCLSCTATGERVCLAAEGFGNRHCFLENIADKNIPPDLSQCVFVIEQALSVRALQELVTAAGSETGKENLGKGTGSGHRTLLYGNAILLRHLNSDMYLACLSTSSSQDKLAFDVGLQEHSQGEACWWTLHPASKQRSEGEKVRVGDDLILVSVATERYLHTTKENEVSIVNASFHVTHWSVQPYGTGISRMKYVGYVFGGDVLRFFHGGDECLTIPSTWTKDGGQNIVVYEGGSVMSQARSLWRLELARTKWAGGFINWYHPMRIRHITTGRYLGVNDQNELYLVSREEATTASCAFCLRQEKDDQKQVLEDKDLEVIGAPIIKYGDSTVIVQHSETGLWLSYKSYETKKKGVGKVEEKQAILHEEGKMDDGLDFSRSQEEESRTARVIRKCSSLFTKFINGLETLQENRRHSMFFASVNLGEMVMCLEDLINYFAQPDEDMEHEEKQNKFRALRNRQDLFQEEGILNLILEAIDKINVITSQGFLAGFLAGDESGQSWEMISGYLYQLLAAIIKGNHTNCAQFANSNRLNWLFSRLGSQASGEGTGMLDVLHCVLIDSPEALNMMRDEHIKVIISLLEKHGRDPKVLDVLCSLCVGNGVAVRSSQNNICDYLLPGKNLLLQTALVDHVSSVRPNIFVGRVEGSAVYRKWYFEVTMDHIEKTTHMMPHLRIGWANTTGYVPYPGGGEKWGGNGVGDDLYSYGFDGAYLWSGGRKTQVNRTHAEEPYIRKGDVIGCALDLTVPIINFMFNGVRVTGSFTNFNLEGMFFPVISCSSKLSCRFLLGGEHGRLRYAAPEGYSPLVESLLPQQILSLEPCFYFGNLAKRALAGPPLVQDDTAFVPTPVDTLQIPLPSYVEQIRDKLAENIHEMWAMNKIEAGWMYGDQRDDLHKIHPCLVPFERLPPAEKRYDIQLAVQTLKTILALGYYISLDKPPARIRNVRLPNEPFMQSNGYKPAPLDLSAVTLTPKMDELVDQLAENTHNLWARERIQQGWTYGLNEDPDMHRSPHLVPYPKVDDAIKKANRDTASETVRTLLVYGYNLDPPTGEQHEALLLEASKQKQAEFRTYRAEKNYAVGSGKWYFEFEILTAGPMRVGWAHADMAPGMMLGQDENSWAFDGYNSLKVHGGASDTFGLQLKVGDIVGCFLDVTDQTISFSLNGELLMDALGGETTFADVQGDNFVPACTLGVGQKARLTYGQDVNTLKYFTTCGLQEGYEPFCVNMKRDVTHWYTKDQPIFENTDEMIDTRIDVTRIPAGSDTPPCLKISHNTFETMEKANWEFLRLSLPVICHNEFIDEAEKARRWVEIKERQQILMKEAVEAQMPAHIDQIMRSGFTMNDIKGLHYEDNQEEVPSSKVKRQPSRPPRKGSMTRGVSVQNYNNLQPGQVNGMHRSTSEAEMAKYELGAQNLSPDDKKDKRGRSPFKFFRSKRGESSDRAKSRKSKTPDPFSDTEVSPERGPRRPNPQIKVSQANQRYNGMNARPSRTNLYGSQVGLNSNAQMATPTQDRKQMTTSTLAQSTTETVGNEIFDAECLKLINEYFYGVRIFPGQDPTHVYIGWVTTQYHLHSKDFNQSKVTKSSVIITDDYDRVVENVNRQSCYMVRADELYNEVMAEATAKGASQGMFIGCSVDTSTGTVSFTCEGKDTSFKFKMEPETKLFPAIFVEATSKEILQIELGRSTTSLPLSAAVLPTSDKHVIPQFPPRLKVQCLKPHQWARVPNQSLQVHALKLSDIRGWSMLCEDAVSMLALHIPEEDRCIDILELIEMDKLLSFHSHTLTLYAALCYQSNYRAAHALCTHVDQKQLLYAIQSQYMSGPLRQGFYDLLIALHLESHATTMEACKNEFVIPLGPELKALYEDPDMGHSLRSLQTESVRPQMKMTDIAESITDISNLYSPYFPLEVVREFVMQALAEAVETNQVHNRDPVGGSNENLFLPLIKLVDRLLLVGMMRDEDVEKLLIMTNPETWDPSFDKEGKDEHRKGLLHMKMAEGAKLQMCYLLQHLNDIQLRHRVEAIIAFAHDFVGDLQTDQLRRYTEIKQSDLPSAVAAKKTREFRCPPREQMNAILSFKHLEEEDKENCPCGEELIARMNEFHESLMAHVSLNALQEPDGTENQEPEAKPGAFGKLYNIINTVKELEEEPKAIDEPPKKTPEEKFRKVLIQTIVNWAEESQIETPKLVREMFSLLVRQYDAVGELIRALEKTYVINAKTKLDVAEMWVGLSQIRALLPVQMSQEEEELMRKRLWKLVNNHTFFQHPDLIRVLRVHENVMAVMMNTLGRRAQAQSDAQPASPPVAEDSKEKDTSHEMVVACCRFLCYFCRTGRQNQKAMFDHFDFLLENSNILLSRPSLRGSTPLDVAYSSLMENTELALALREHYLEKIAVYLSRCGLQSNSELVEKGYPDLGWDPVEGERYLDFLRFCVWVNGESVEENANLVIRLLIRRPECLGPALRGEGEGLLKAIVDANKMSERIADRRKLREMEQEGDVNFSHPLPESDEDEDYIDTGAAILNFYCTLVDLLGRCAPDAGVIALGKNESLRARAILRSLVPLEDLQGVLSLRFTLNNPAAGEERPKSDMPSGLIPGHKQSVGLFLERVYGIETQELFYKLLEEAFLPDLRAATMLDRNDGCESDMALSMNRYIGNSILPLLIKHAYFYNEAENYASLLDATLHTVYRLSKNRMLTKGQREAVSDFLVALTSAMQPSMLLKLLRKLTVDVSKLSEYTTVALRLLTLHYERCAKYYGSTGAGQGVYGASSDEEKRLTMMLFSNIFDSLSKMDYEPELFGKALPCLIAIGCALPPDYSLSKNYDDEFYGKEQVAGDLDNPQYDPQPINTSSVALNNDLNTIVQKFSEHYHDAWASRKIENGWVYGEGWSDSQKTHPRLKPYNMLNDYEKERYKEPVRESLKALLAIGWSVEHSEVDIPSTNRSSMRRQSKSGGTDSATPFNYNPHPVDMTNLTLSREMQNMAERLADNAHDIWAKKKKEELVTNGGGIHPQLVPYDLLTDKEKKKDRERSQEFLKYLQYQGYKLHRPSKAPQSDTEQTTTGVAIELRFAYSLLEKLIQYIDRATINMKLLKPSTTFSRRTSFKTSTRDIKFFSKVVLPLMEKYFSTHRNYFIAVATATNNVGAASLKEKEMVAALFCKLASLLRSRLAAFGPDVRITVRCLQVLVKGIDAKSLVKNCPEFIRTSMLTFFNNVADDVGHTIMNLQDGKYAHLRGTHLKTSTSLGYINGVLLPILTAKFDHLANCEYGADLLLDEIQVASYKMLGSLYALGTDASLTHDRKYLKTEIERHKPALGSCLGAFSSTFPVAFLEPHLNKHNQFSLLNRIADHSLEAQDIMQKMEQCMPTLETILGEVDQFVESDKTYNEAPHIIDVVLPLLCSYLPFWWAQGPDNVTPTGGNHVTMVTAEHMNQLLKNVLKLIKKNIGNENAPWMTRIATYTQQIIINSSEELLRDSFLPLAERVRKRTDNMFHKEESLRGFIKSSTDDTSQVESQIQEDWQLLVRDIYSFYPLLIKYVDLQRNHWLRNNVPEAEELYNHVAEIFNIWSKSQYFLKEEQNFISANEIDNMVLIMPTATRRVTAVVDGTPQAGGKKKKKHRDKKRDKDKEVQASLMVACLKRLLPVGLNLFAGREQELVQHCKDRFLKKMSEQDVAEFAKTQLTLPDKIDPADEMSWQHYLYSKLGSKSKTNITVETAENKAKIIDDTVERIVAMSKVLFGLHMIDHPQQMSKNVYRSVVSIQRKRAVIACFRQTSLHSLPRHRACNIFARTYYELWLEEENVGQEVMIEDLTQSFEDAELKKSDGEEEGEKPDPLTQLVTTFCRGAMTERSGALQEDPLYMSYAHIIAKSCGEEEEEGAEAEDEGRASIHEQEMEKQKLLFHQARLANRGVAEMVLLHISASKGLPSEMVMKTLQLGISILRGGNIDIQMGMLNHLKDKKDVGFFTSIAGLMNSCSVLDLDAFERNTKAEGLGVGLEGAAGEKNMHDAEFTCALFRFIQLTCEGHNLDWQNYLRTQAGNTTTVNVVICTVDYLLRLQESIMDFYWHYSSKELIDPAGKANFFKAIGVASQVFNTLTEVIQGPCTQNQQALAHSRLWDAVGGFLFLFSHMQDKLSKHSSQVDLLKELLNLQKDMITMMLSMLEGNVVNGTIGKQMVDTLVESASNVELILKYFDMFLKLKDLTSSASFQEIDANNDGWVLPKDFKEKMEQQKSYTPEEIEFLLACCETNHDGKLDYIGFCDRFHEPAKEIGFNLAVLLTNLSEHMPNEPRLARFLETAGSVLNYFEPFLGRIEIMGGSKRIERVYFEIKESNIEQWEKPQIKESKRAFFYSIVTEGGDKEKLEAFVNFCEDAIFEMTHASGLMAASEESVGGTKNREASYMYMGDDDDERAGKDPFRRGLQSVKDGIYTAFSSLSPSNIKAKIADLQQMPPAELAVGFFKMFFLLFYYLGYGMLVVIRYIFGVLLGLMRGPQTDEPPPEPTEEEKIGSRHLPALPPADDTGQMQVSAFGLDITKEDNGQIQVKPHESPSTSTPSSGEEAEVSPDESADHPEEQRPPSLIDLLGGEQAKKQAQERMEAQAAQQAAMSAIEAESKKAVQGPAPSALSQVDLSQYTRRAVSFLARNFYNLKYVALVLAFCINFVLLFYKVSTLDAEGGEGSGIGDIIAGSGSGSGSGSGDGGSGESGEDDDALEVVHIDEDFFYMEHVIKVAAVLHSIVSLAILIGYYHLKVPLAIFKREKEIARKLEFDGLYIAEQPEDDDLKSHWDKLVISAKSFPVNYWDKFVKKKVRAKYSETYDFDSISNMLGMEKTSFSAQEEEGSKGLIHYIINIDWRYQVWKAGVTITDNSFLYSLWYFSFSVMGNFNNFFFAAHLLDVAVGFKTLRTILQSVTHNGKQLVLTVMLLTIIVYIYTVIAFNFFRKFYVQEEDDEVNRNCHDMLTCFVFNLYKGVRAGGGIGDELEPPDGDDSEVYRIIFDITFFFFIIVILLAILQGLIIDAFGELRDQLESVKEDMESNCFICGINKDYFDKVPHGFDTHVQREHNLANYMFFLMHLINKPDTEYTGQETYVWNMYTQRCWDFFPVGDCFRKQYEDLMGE

## CNC(=O)c1cc(Cl)cc(C)c1NC(=O)c1cc(Br)nn1-c1ncccc1Cl [chlo, chlorantraniliprole]
  time-lapse R-CEPIA1er [Ca2+]ER measurement in HEK cells stably expressing sfRyR: their effect in intracellular Ca2 release is similar to that of the positive control chlo

Reference: article PMC8206283, “Three New Quinazoline-Containing Indole Alkaloids From the Marine-Derived Fungus Aspergillus sp. HNMF114” (Frontiers in Microbiology, 2021)
